We go through two molecules from patent US7172889B2, “Biological compositions and methods for treatment of cervical cancer” (Ultra Biotech Limited, priority 2003, dated 2007).

For data set [1], the system named is cervical cancer cell line U14. Nature of the data set: Survival of mice of the 615 strain transplanted with cervical cancer cell line U14 (Example 7). The format is in vivo. Particulars: for Number of live animals remaining in the groups after 30 days of treatment: 30 mice per group, 2AY/2NY 0.5 ml oral per day, 2MMC 1.2 mg/kg/day s.c. As for the experimental part: The following example illustrates the benefit of a biological composition of the invention in a model of human cervical cancer in mice from the 615 strain. The survival time of mice after tumor injection and treatment was studied.
(§1) The biological composition comprising 10^8 cells per ml of activated and conditioned yeast cells of the strain Saccharomyces carlsbergensis Hansen strain AS2.444 was prepared by the methods described in Section 5.1 and subsections therein.
The animals were prepared in a similar manner as described in Section 6.1.
The mice injected with tumor cells were immediately divided into 4 experimental groups of ten mice per group and one control group. The four experimental groups were triplicated (i.e., using a total of 120 mice in the experimental groups). In group 2AY, the mice received 0.5 ml of the biological composition once per day. In group 2NY, the mice received 0.5 ml of the untreated yeast cells once per day. In group 2MMC, the mice were injected subcutaneously with 1.2 mg of mitomycin C (MMC) per kg body weight per day. In group 2CK1, the mice received 0.5 ml of physiological saline once per day.
The mice received the biological composition, untreated yeast cells, MMC or saline on the same day as the tumor cells were transplanted. The mice in group 2CK2 also started receiving saline on the same day as the other four groups. The biological composition, untreated yeast cells and saline were administered orally by a feeding tube and the MMC by subcutaneous injection for 30 consecutive days. The mice were observed over 6 months from the day of tumor inoculation and survival was recorded. The weight of the mice and the weight of the tumor were determined by standard techniques.

The subject of data set [2] is cervical cancer cell line U14. Nature of the data set: Tumor growth in mice of the 615 strain transplanted with cervical cancer cell line U14 (Example 6). The format is in vivo, mice from the 615 strain. Particulars: U14 tumor-bearing 615 mice, 30 consecutive days of treatment, sacrificed on 31st day; AY/NY 0.3 ml oral once per day, MMC 0.8 mg/kg/day s.c.
Text: The following example illustrates the benefit of a biological composition of the invention in a model of human cervical cancer in mice from the 615 strain. The growth of the tumor in the mice was studied.
The cervical cancer cell line U14 was used in the model which closely resembles the human cervical cancer pathology. Detailed description of the use of cervical cancer cell line U14 can be found in Tao G. et al., 2001, Chin Med J. 114(6):623–7, which is incorporated herein by reference in its entirety.
as §1
The animals used to generate the cervical cancer cells for the experiments were female mice from the 615 strain (obtainable from the Chinese Academy of Military Medical Sciences, Beijing, China) having an average body weight of 20 to 22 gram and 4 to 6 months old. […]
The mice received the biological composition, untreated yeast cells, MMC or saline on the same day as the tumor cells were transplanted. […] The weight of the mice and the weight of the tumor were determined by standard techniques.

In data set [3] the test system is cervical cancer cell line U27. Nature of the data set: Survival of kun ming mice transplanted with cervical cancer cell line U27 (Example 9). It counts as in vivo. As to conditions: for Number of live animals remaining in the groups after 30 days of treatment: 30 mice per group, 2AY/2NY 0.5 ml oral per day, 2VCR 4.5 mg/kg/day i.v. As for the experimental part: The following example illustrates the benefit of a biological composition of the invention in a kun ming mouse model of human cervical cancer. The survival time of mice after tumor injection and treatment was studied.
as §1
The animals were prepared in a similar manner as described in Section 8.1.
The mice injected with tumor cells were immediately divided into 4 experimental groups of ten mice per group and one control group. The four experimental groups were triplicated (i.e., using a total of 120 mice in the experimental groups). In group 2AY, the mice received 0.5 ml of the biological composition once per day. In group 2NY, the mice received 0.5 ml of the untreated yeast cells once per day. In group 2VCR, the mice were injected intravenously with 4.5 mg of […] (VCR) per kg body weight per day. In group 2CK1, the mice received 0.5 ml of physiological saline once per day.
The mice received the biological composition, untreated yeast cells, VCR or saline on the same day as the tumor cells were transplanted. The mice in group 2CK2 also started receiving saline on the same day as the other four groups. The biological composition, untreated yeast cells and saline were administered orally by a feeding tube and the VCR by intravenous injection for 30 consecutive days. The mice were observed over 6 months from the day of tumor inoculation and survival was recorded. The weight of the mice and the weight of the tumor were determined by standard techniques.

The test system of data set [4] is cervical cancer cell line U27. Nature of the data set: Tumor growth in kun ming mice transplanted with cervical cancer cell line U27 (Example 8). It counts as in vivo, kun ming mouse. Particulars: U27 tumor-bearing kun ming mice, 30 consecutive days of treatment, sacrificed on 31st day; AY/NY 0.3 ml oral once per day, VCR 3 mg/kg/day i.v.
Text: The following example illustrates the benefit of a biological composition of the invention in a kun ming mouse model of human cervical cancer. The growth of the tumor in the mice was studied.
The cervical cancer cell line U27 was used in the model which closely resembles the human cervical cancer pathology. Detailed description of the use of cervical cancer cell line U27 can be found in Qian S. S. et al., 1987, Zhongguo Yi Xue Ke Xue Yuan Xue Bao 9(1):33–7, which is incorporated herein by reference in its entirety.
as §1
The animals used to generate the cervical cancer cells for the experiments were female kun ming mouse (obtainable from the Chinese Academy of Military Medical Sciences, Beijing, China) having an average body weight of 20 to 22 gram and 5 to 6 months old. […]
The mice received the biological composition, untreated yeast cells, VCR or saline on the same day as the tumor cells were transplanted. […] The weight of the mice and the weight of the tumor were determined by standard techniques.

Setting [5] is: 0 month after cessation of treatment.
The mark [6] stands for this setting: 1 month after cessation of treatment.
Setting [7] is: 2 months after cessation of treatment.
Where [8] appears, read: 3 months after cessation of treatment.
The mark [9] stands for this setting: 4 months after cessation of treatment.
The mark [10] stands for this setting: 5 months after cessation of treatment.
Where [11] appears, read: 6 months after cessation of treatment.
Where [12] appears, read: surviving mice after 6 months observation, U14, 615 mice, 0.5 ml oral per day (2MMC 1.2 mg/kg/day s.c.) for 30 days.
Setting [13] is: surviving mice after 6 months observation, U27, kun ming mice, 0.5 ml oral per day (2VCR 4.5 mg/kg/day i.v.) for 30 days.

In the case of `CO[C@@]12[C@H](COC(N)=O)C3=C(C(=O)C(C)=C(N)C3=O)N1C[C@@H]1N[C@@H]12` [MMC, mitomycin C], the “Number of live animals remaining in the groups after 30 days of treatment” value (from here on “Number of live animals remaining”) came out at 30 in data set [1] (setting [5]); 30 in data set [1] (setting [6]); 24 in data set [1] (setting [7]); 13 in data set [1] (setting [8]); 0 in data set [1] (setting [9]); 0 in data set [1] (setting [10]). Moreover, the “Number of live animals remaining” value in data set [1] (setting [11]) was 0. Moreover, in data set [1] (observed over 6 months, 2NY 0.5 ml per day, 2MMC 1.2 mg/kg/day), the “death during the experiment” value was “all died during the experiment”. The figures for the “mean weight of mice and standard deviation” value in data set [1] (setting [12]) and in data set [2] were “all animals dead” and 19.3 ± 3.3 g, respectively. Besides, the “mean weight of tumor nodules and standard deviation” value is listed as “all animals dead” in data set [1] (setting [12]) and 4.4 ± 2.23 mg in data set [2].

`CC[C@]1(O)C[C@@H]2CN(CCc3c([nH]c4ccccc34)[C@@](C(=O)OC)(c3cc4c(cc3OC)N(C)[C@H]3[C@@](O)(C(=O)OC)[C@H](OC(C)=O)[C@]5(CC)C=CCN6CC[C@]43[C@@H]65)C2)C1` [VCR, vinblastine]: the “Number of live animals remaining” value in data set [3] (setting [5]) is 30; in data set [3] (setting [6]), 30; in data set [3] (setting [7]), 22; in data set [3] (setting [8]), 17; in data set [3] (setting [9]), 4; in data set [3] (setting [10]), 0. Moreover, in data set [3] (setting [11]), the “Number of live animals remaining” value came out at 0. Besides, the “death during the experiment” value in data set [3] (observed over 6 months, 2NY 0.5 ml per day, 2VCR 4.5 mg/kg/day) is “all died during the experiment”. Moreover, the “mean weight of mice and standard deviation” value in data set [3] (setting [13]) is reported as “all animals dead”; in data set [4] it was 18.5 ± 3.7 g. The “mean weight of tumor nodules and standard deviation” value was “all animals dead” in data set [3] (setting [13]) and 4.77 ± 2.79 g in data set [4].
